Values of other authors as cited in patent US6863905B1, “Enhanced iodine treatment of drinking water” (Shanbrom Technologies, LLC, priority 2002, dated 2005).
≈ marks a conversion by molar mass, not a printed value.

Conditions: at 20° C.

Question: Which solubility in water does the source give for `II` [iodine] here?
Answer: 300 µg/mL (≈ 1180 µM)
